Measurements as given in PMC6008489 (Bioorganic & Medicinal Chemistry, 2018).

How the values were obtained:
Experiment in all cases: 26-kinase panel mobility shift assay, single concentration
Type in all cases: biochemical
PRAK = biological target: T1, PRAK (Homo sapiens, UniProt Q8IW41); conditions: read-out: % Inhibition PRAK
T1 construct: purchased Perkin Elmer (ProfilerPro assay kit 1)
T1 sequence (Q8IW41 1-473): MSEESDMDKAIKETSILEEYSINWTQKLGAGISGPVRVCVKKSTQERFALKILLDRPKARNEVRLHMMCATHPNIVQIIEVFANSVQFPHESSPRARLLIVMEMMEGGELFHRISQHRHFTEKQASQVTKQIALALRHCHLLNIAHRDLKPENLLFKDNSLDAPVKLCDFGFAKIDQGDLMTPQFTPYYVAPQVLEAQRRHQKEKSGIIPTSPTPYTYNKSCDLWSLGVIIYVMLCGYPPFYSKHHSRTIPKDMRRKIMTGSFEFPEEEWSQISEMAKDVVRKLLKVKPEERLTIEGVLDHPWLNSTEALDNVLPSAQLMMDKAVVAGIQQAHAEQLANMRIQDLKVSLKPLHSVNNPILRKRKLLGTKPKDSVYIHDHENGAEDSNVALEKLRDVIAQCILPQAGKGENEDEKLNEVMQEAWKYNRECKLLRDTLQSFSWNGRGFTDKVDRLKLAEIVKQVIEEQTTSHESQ
Description: (§1) A mobility shift assay to determine kinase inhibition was carried out using a
(§2) modified version of the ProfilerPro assay kit 1 (Perkin Elmer, Coventry, UK)
(§3) including MPS1 and Aurora B. Each kit contained an enzyme plate, a substrate
(§4) plate, reconstitution buffer, 1 M DTT, protease inhibitor cocktail and termination
(§5) buffer. Test compounds were added as a solution in DMSO.
final concentration. […] The
(§6) peptide phosphorylation assay was carried out as per the manufacturer’s
(§7) instructions. The electrophoretic separation and analysis of the phosphorylated
(§8) and non-phosphorylated peptides was carried out on a 4-sipper chip using a
(§9) LabChip EZReader II (Perkin Elmer). Results were expressed as % inhibition of
(§10) peptide phosphorylation relative to control wells for 0 % (no test compound) and
(§11) 100 % (no ATP) inhibition. The percentage inhibition was calculated using the
(§12) % Inhibition = [1 - (% Conversion Sample / % Conversion 0% Inhibition Control)] x 100

LCK = biological target: T2, LCK (Homo sapiens, UniProt P06239); conditions: read-out: % Inhibition LCK
T2 construct: purchased Perkin Elmer (ProfilerPro assay kit 1)
Description: as §1, §2, §3, §4, §5, §6, §7, §8, §9, §10, §11, §12

FYN = biological target: T3, FYN (Homo sapiens, UniProt P06241); conditions: read-out: % Inhibition FYN
T3 construct: purchased Perkin Elmer (ProfilerPro assay kit 1)
Description: as §1, §2, §3, §4, §5, §6, §7, §8, §9, §10, §11, §12

p38 = biological target: T4, p38 (Homo sapiens, UniProt Q16539); conditions: read-out: % Inhibition p38
T4 construct: purchased Perkin Elmer (ProfilerPro assay kit 1)
Description: (§13) In order to test the biochemical activity of our fragment library, a panel of 26 structurally diverse protein kinases was used.
Mobility Shift Assay Protocol
(§14) Screening of 26 kinases using a mobility shift assay
as §1, §2, §3, §4, §5
final concentration. […] The
as §6, §7, §8, §9, §10, §11, §12

INSR = biological target: T5, INSR (Homo sapiens, UniProt P06213); conditions: read-out: % Inhibition INSR
T5 construct: purchased Perkin Elmer (ProfilerPro assay kit 1)
Description: as §13, §14, §1, §2, §3, §4, §5, §6, §7, §8, §9, §10, §11, §12

LYN = biological target: T6, LYN (Homo sapiens, UniProt P07948); conditions: read-out: % Inhibition LYN
T6 construct: purchased Perkin Elmer (ProfilerPro assay kit 1)
Description: as §1, §2, §3, §4, §5, §6, §7, §8, §9, §10, §11, §12

PKD2 = biological target: T7, PKD2 (Homo sapiens, UniProt Q9BZL6); conditions: read-out: % Inhibition PKD2
T7 construct: purchased Perkin Elmer (ProfilerPro assay kit 1)
T7 sequence (Q9BZL6 1-878): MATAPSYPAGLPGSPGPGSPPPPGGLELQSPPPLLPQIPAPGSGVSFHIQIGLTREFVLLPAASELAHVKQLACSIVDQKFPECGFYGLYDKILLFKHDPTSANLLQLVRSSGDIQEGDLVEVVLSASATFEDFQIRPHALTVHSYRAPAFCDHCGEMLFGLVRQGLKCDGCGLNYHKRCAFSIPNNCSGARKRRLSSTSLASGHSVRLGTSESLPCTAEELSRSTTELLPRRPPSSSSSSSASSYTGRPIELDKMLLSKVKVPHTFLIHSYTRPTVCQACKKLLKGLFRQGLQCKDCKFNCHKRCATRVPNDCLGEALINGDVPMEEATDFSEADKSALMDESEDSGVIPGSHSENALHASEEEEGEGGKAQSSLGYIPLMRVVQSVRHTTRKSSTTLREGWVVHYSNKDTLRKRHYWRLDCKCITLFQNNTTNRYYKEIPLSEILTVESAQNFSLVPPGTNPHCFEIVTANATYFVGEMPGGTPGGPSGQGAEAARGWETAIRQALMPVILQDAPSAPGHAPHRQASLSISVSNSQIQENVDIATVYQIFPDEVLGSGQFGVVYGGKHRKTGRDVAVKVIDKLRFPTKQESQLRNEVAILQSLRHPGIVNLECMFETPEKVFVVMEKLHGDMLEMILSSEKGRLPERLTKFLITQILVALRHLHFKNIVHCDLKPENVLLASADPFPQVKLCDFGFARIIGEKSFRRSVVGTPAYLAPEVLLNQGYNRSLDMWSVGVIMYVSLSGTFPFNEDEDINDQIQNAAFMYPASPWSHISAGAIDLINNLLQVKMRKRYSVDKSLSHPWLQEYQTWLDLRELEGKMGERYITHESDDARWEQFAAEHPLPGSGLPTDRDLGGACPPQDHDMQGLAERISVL
Description: as §13, §14, §1, §2, §3, §4, §5, §6, §7, §8, §9, §10, §11, §12

CHK2 = biological target: T8, CHK2 (Homo sapiens, UniProt O96017); conditions: read-out: % Inhibition CHK2
T8 construct: purchased Perkin Elmer (ProfilerPro assay kit 1)
Description: as §1, §2, §3, §4, §5, §6, §7, §8, §9, §10, §11, §12

Erk1 = biological target: T9, Erk1 (Homo sapiens, UniProt P27361); conditions: read-out: % Inhibition Erk1
T9 construct: purchased Perkin Elmer (ProfilerPro assay kit 1)
Description: as §1, §2, §3, §4, §5, §6, §7, §8, §9, §10, §11, §12

GSK3b = biological target: T10, GSK3b (Homo sapiens, UniProt P49841); conditions: read-out: % Inhibition GSK3
T10 construct: purchased Perkin Elmer (ProfilerPro assay kit 1)
Description: as §1, §2, §3, §4, §5, §6, §7, §8, §9, §10, §11, §12

RSK1 = biological target: T11, RSK1 (Homo sapiens, UniProt Q15418); conditions: read-out: % Inhibition RSK1
T11 construct: purchased Perkin Elmer (ProfilerPro assay kit 1)
Description: Mobility Shift Assay Protocol
as §14, §1, §2, §3, §4, §5, §6, §7, §8, §9, §10, §11, §12

AKT2 = biological target: T12, AKT2 (Homo sapiens, UniProt P31751); conditions: read-out: % Inhibition AKT2
T12 construct: purchased Perkin Elmer ProfilerPro assay kit 1
Description: as §13, §14, §1, §2, §3, §4, §5, §6, §7, §8, §9, §10, §11, §12

MAPKAPK2 = biological target: T13, MAPKAPK2 (Homo sapiens, UniProt P49137); conditions: read-out: % Inhibition MAPKAPK2
T13 construct: purchased Perkin Elmer (ProfilerPro assay kit 1)
Description: as §1, §2, §3, §4, §5, §6, §7, §8, §9, §10, §11, §12

ABL = biological target: T14, ABL (Homo sapiens, UniProt P00519); conditions: read-out: % Inhibition ABL
T14 construct: purchased Perkin Elmer ProfilerPro assay kit 1
Description: Mobility Shift Assay Protocol
as §14, §1, §2, §3, §4, §5, §6, §7, §8, §9, §10, §11, §12

AurB = AurB (Homo sapiens, UniProt Q96GD4); conditions: read-out: % Inhibition AurB
Description: Mobility Shift Assay Protocol
as §14, §1, §2, §3, §4, §5, §6, §7, §8, §9, §10, §11, §12

Erk2 = biological target: T15, Erk2 (Homo sapiens, UniProt P28482); conditions: read-out: % Inhibition Erk2
T15 construct: purchased Perkin Elmer (ProfilerPro assay kit 1)
Description: as §1, §2, §3, §4, §5, §6, §7, §8, §9, §10, §11, §12

CK1d = biological target: T16, CK1d (Homo sapiens, UniProt P48730); conditions: read-out: % Inhibition CK1d
T16 construct: purchased Perkin Elmer (ProfilerPro assay kit 1)
Description: as §1, §2, §3, §4, §5, §6, §7, §8, §9, §10, §11, §12

MSK1 = biological target: T17, MSK1 (Homo sapiens, UniProt O75582); conditions: read-out: % Inhibition MSK1
T17 construct: purchased Perkin Elmer (ProfilerPro assay kit 1)
Description: as §13
Mobility Shift Assay Protocol
as §14, §1, §2, §3, §4, §5
final concentration. […] The
as §6, §7, §8, §9, §10, §11, §12

PKA = biological target: T18, PKA (Homo sapiens, UniProt P17612); conditions: read-out: % Inhibition PKA
T18 construct: purchased Perkin Elmer (ProfilerPro assay kit 1)
Description: as §13
Mobility Shift Assay Protocol
as §14, §1, §2, §3, §4, §5
final concentration. […] The
as §6, §7, §8, §9, §10, §11, §12

SRC = biological target: T19, SRC (Homo sapiens, UniProt P12931); conditions: read-out: % Inhibition SRC
T19 construct: purchased Perkin Elmer (ProfilerPro assay kit 1)
Description: as §13, §14, §1, §2, §3, §4, §5, §6, §7, §8, §9, §10, §11, §12

T14 sequence (P00519 whole entry): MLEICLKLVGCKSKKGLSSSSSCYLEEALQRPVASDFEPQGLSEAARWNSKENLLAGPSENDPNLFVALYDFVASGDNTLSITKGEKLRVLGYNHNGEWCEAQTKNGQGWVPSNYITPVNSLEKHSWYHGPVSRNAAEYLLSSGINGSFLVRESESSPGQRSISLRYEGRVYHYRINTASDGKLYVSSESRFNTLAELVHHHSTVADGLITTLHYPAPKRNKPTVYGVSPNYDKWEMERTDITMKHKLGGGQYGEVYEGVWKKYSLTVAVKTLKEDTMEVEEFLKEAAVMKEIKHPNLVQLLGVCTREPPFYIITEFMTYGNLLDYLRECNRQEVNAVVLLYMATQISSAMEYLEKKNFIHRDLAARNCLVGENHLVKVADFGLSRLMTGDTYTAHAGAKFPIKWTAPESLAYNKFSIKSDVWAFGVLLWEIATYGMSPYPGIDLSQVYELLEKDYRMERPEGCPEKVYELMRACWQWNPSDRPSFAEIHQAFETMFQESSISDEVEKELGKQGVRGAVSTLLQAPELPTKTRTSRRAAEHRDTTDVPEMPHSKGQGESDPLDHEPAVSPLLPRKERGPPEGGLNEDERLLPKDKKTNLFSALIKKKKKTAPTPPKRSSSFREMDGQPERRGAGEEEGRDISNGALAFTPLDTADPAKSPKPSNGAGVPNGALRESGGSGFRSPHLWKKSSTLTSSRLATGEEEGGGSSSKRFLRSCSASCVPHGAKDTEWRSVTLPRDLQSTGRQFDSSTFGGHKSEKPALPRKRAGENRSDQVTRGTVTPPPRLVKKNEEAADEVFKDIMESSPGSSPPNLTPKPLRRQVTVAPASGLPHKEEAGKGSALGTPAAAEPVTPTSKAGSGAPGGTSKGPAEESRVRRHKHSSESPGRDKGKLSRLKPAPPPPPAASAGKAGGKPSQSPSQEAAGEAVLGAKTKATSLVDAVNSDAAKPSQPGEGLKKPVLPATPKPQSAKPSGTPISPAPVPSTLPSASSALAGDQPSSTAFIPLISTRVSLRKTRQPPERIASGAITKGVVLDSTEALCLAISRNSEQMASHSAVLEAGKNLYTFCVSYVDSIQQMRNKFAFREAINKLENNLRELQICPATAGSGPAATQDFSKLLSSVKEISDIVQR
T12 sequence (P31751 whole entry): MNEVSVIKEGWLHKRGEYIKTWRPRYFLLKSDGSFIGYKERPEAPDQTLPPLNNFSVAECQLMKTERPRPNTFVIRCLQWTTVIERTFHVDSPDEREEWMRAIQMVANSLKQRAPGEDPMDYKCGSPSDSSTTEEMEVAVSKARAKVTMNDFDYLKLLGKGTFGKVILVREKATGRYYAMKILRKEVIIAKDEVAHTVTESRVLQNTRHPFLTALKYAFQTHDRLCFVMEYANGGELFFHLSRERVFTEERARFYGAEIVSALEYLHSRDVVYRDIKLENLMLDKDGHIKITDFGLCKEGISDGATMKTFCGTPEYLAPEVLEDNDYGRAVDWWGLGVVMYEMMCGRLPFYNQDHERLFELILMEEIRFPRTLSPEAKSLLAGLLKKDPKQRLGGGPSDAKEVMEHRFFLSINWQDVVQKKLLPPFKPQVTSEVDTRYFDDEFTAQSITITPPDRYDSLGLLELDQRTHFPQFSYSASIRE
Chain of AurB (Q96GD4 whole entry): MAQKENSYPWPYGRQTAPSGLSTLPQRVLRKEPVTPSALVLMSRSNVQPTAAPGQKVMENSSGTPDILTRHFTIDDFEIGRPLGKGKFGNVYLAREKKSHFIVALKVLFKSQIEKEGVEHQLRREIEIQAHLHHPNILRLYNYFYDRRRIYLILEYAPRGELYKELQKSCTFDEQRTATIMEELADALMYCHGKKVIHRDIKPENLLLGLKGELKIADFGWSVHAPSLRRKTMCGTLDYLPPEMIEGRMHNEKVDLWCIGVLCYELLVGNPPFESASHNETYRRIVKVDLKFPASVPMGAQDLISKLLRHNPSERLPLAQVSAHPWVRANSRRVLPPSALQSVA
T17 sequence (O75582 whole entry): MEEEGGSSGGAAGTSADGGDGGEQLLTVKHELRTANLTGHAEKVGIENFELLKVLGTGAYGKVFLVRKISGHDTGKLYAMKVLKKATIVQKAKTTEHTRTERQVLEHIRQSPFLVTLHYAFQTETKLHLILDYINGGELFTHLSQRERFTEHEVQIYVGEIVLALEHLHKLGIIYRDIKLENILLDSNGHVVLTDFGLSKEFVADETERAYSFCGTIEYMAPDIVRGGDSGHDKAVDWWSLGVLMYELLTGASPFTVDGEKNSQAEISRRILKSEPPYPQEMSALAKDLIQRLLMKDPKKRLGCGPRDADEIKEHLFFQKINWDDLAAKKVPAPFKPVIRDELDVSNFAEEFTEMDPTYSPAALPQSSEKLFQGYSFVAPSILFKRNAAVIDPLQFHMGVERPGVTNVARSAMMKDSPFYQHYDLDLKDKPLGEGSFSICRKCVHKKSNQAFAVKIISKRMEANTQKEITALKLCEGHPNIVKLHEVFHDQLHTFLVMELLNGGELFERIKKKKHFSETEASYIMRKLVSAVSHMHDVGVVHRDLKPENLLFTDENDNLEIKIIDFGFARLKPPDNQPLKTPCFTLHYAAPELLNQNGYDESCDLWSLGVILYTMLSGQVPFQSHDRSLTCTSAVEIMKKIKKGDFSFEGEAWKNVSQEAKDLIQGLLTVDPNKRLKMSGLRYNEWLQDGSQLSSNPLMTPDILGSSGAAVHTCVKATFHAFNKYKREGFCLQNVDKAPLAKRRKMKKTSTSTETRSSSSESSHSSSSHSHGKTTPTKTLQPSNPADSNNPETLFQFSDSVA
T4 sequence (Q16539 whole entry): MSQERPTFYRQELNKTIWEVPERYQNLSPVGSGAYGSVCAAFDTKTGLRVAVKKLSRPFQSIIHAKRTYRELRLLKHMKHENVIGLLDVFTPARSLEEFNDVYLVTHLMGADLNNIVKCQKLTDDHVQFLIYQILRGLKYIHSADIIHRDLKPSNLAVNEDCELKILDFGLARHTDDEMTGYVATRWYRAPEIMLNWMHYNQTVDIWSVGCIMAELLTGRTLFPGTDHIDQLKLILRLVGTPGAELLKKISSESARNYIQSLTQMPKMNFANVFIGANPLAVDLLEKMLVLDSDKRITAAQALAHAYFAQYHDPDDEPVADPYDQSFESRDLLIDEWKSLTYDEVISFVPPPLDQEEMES
T6 sequence (P07948 whole entry): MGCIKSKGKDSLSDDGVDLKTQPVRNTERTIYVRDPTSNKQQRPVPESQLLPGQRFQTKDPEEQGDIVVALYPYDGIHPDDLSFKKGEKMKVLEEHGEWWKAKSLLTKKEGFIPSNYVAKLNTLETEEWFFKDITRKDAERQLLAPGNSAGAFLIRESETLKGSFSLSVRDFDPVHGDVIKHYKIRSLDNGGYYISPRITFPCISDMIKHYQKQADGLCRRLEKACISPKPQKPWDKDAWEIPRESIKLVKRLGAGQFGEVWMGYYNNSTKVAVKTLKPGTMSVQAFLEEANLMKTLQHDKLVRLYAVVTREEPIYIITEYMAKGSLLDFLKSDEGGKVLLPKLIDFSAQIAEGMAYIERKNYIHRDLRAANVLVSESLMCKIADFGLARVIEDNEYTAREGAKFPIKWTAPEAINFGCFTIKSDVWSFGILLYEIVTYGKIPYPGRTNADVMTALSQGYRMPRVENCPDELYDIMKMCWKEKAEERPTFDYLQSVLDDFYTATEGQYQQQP
T3 sequence (P06241 whole entry): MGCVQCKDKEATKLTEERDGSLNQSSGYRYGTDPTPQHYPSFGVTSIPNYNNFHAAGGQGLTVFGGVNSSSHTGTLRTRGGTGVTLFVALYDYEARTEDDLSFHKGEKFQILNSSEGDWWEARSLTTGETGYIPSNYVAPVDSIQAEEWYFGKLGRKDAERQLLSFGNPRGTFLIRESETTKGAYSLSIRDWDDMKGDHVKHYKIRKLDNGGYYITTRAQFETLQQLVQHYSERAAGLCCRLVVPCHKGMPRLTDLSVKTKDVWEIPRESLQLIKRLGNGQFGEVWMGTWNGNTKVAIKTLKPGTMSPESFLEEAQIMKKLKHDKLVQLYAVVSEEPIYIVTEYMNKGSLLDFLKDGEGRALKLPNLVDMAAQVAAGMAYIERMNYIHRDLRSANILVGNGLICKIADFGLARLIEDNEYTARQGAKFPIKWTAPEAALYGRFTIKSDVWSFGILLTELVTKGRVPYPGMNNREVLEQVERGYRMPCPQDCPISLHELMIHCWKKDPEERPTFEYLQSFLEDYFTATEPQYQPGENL
T2 sequence (P06239 whole entry): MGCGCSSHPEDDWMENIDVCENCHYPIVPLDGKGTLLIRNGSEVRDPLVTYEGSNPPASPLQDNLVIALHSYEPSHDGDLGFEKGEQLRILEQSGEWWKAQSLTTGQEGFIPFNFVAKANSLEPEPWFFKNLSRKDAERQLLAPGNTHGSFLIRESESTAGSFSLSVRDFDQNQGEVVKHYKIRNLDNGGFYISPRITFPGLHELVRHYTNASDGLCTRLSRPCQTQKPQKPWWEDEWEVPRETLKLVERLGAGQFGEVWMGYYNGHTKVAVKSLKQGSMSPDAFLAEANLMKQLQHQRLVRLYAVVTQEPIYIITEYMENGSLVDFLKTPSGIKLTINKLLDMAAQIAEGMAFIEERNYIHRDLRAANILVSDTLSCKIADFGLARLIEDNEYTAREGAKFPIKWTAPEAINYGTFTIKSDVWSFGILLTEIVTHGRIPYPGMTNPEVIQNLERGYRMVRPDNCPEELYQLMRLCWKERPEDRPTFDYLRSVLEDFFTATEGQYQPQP

| Structure (SMILES) | inhibition at 100 µM (PRAK) [%] | inhibition at 100 µM (LCK) [%] | inhibition at 100 µM (FYN) [%] | inhibition at 100 µM (p38) [%] | inhibition at 100 µM (INSR) [%] | inhibition at 100 µM (LYN) [%] | inhibition at 100 µM (PKD2) [%] | inhibition at 100 µM (CHK2) [%] | inhibition at 100 µM (Erk1) [%] | inhibition at 100 µM (GSK3b) [%] | inhibition at 100 µM (RSK1) [%] | inhibition at 100 µM (AKT2) [%] | inhibition at 100 µM (MAPKAPK2) [%] | inhibition at 100 µM (ABL) [%] | inhibition at 100 µM (AurB) [%] | inhibition at 100 µM (Erk2) [%] | inhibition at 100 µM (CK1d) [%] | inhibition at 100 µM (MSK1) [%] | inhibition at 100 µM (PKA) [%] | inhibition at 100 µM (SRC) [%] |
| --- | --- | --- | --- | --- | --- | --- | --- | --- | --- | --- | --- | --- | --- | --- | --- | --- | --- | --- | --- | --- |
| Nc1ccc[nH]c1=O [Compound 1, 3-aminopyridin-2-one] | 19 | 4 | 11 | 9 | 2 | 15 | 10 | 49 | 9 | 17 | 19 | 77 | 25 | 5 | 20 | 3 | 45 | 26 | 0 | 31 |
| Cn1cc(-c2c[nH]c(=O)c(N)c2)cn1 [Compound 2, 3-Amino-5-(1-methyl-1H-pyrazol-4-yl)pyridin-2(1H)-one] | 99 | 11 | 34 | 39 | 25 | 49 | 67 | 99 | 62 | 68 | 89 | 97 | 97 | 58 | 96 | 68 | 72 | 95 | 66 | 86 |
| COc1ncc(-c2ccncc2)cc1N [Compound 5, 6-Methoxy-3,4′-bipyridin-5-amine] | 1 | 7 | 9 | 0 | 6 | 15 | 26 | 36 | 20 | 26 | 23 | 4 | 19 | 26 | 35 | 12 | 38 | 61 | 52 | 8 |
| Nc1cc(-c2ccnc3ccccc23)c[nH]c1=O [Compound 6] | 15 | 40 | 40 | 0 | 13 | 27 | 36 | 57 | 22 | 20 | 10 | 9 | 32 | 66 | 61 | 15 | 37 | 22 | 48 | 24 |
| CNc1nccc(-c2c[nH]c(=O)c(N)c2)n1 [Compound 7] | 88 | 55 | 66 | 25 | 80 | 63 | 70 | 98 | 52 | 89 | 91 | 93 | 79 | 67 | 94 | 53 | 79 | 94 | 81 | 89 |
